Read-outs that look alike come from different tables or passages of the source.
What was measured:
[1] = test system: HIV-1 infection of TZM-bl cells; test: HIV-1 infectivity enhancement assay, β-galactosidase luminescence; type: cell-based; settings: for Absolute Infectivity / RLU /s (Feb2021): unrounded values of the 1.3 µM column; for Log10 Inf. rel. to EF-C: log10 of HIV-1 infection of TZM-bl cells relative to EF-C, Fig S15 source data, asymmetric std dev errors; for Rel-to EFC / n-fold to virus: Fig S8 panels B, D; for Rel-to EFC: infectivity enhancement relative to EF-C
[2] = type: physicochemical; settings: STD prep
[3] = Zeta-potential measurement; type: physicochemical; settings: for Zeta Pot. / mV: mean; for Zeta-pot. / mV: zeta potential of peptide, Fig S15 source data
In short: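 Surface charge of aggregated peptides: 1 mg/mL solutions in PBS (pH 7.4) incubated 1 d at RT, diluted into 1 mM KCl just before reading. Electrophoretic mobility converted to zeta potential by the Smoluchowski formula; triplicate measurements from two separate experiments averaged.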

[4] = Feb2021, 1.3 µM value relative to virus only (0 µM)
[5] = Feb2021, log10 of infectivity relative to EF-C
[6] = Feb2021, n-fold infectivity relative to EF-C
[7] = infectivity class (low / medium / high) of each library peptide, main list in c1-c6, same classes repeated in sub-lists of sequences containing the hydrophobicity/charge patterns P+,H0,P+,H0,P0,H0,P0, P+,H0,P0,H0,P0,H0,P0, P+,H0,P0,H0
[8] = infectivity enhancement relative to EF-C (=1), Feb2021 run
[9] = infectivity n-fold relative to virus only, Feb2021 run
[10] = log10 of infectivity relative to EF-C, Feb2021 run
[11] = infectivity class (low / medium / high) of the peptide in the sequence-pattern analysis, Fig. S22-A4, class limits not given
[12] = Feb2021, Log10 of infectivity relative to EF-C
[13] = Feb2021, n-fold enhancement relative to EF-C
[14] = Feb2021 run, infectivity n-fold relative to virus alone
[15] = Feb2021 run, log10 of infectivity relative to EF-C
[16] = Feb2021 run, n-fold infectivity relative to EF-C
[17] = infectivity n-fold relative to virus alone

Substance | n-fold to virus (Feb2021) [1, 4] | Log10 of Rel to EFC (Feb2021) [1, 5] | Rel-to EFC (Feb-2021) [1, 6] | Absolute Infectivity / RLU /s (Feb2021) ([1]; Feb2021) | infectivity [1, 7] | Log10 Inf. rel. to EF-C [1] | TEM: 1= fibrils, 0= aggregates (micelle), 0.5 = aggregates and fibrils, -1 = nothing obersved, STD prep [2] | Zeta category ( +1 = if > 4 mV;-1 = if < -4 mV; 0 = -4mV to 4 mV) [3] | Zeta Pot. / mV ([3]; Std Zeta in next column) | Zeta Pot. / mV ([3]; Std in separate column) | Zeta-pot. / mV [3] | infectivity [1, 11] | Log10 of Rel to EFC (Feb2021) [1, 12] | Rel-to EFC (Feb-2021) [1, 13] | n-fold to virus (Feb2021) [1, 14] | Log10 of Rel to EFC (Feb2021) [1, 15] | Rel-to EFC (Feb-2021) [1, 16] | Zeta category ( +1 = if > 4 mV;-1 = if < -4 mV; 0 = -4mV to 4 mV) ([3]; category from zeta potential) | further results
CEIEIQI [AR2/ TM142] | 1.173 | -1.554 | 0.02791 | 633.3 RLU /s | low | -1.554 | 1 | -1 (-1 = if < -4 mV) | -26.1 mV | -26.1 mV | -26.1 mV | – | – | – | – | – | – | – | Rel-to EFC (Feb-2021) [1, 8]: 0.02791; n-fold to virus (Feb2021) [1, 9]: 1.173; Log10 of Rel to EFC (Feb2021) [1, 10]: -1.554
CEIEIQINM [TM144] | 2.736 | -1.186 | 0.06512 | 3593 RLU /s | – | -1.186 | 1 | -1 (-1 = if < -4 mV) | -15.3 mV | -15.3 mV | -15.3 mV | low | – | – | – | – | – | – | Rel-to EFC (Feb-2021) [1, 8]: 0.06512; n-fold to virus (Feb2021) [1, 9]: 2.736; Log10 of Rel to EFC (Feb2021) [1, 10]: -1.186
CKAKAQA [TM155] | 1.325 | – | 0.03153 | 1740 RLU /s | low | -1.501 | 0.5 | -1 (-1 = if < -4 mV) | -8.01 mV | -8.01 mV | -8.01 mV | low | -1.501 | 0.03153 | 1.325 | -1.501 | 0.03153 | -1 (-1 = if < -4 mV) | –
CKAKAQANM [BL9] | 1.316 | – | 0.03133 | 430 RLU /s | low | -1.504 | 0.5 | -1 (-1 = if < -4 mV) | -7.773 mV | -7.773 mV | -7.773 mV | – | -1.504 | 0.03133 | 1.316 | -1.504 | 0.03133 | -1 (-1 = if < -4 mV) | –
CKAKAQANMWQ [BL8] | 1.837 | – | 0.04371 | 600 RLU /s | low | -1.359 | 0.5 | 0 (0 = -4mV to 4 mV) | 0.7373 mV | 0.7373 mV | 0.7373 mV | – | -1.359 | 0.04371 | 1.837 | -1.359 | 0.04371 | 0 (0 = -4mV to 4 mV) | Rel-to EFC [1]: 0.04371; n-fold to virus [1, 17]: 1.837
CKFKFQFNMW [KB14] | 40.34 | -0.01766 | 0.9602 | 21516.66667 RLU /s | high | -0.01766 | 1 | 1 (+1 = if > 4 mV) | 18.4 mV | 18.4 mV | 18.4 mV | high | – | – | 40.34 | -0.01766 | 0.9602 | – | –
CKIKIQINMW [TM86] | 54.4 | – | 1.295 | 7253 RLU /s | high | 0.1122 | 1 | 1 (+1 = if > 4 mV) | 18.3 mV | 18.3 mV | 18.3 mV | high | 0.1122 | 1.295 | 54.4 | 0.1122 | 1.295 | 1 (+1 = if > 4 mV) | –
CKWKWQW [KB4] | 10.67 | -0.5951 | 0.254 | 6760 RLU /s | medium | -0.5951 | 0 | 1 (+1 = if > 4 mV) | 14.7 mV | – | 14.7 mV | – | – | – | – | – | – | – | Rel-to EFC [1]: 0.254; n-fold to virus [1, 17]: 10.67
CKYKYQY [KB2] | 1.711 | -1.39 | 0.04071 | 1083 RLU /s | low | -1.3903 | 0 | 0 (0 = -4mV to 4 mV) | 1.49 mV | – | 1.49 mV | – | – | – | – | – | – | – | –
CQFQFQF [QBL4] | 14.84 | -0.4519 | 0.3533 | 7570 RLU /s | medium | -0.4519 | 1 | -1 (-1 = if < -4 mV) | -24.8 mV | – | -24.8 mV | – | – | – | – | – | – | – | Rel-to EFC [1]: 0.3533; n-fold to virus [1, 17]: 14.84
KIKIKIQINMWQ [VH9] | – | – | – | – | high | -0.1048 | – | – | 13.1 mV | – | 13.1 mV | high | -0.1048 | 0.7855 | – | – | – | 1 (+1 = if > 4 mV) | –
